Series [1] has as its system Drosophila suzukii larvae. Put plainly: Drosophila suzukii larval feeding (Example 8; peptide screening). Format: in vivo. Also noted: key to D. suzukii (Sig Diff Grp): A indicates a significant difference in survival compared with control (blank).; B indicates a significant difference in survival compared with scrambled capa1.; C indicates a significant difference in survival compared with scrambled capa2. The note with it: for D. suzukii (Mean% Lethality ± SD) / D. suzukii (Sig Diff Grp): Peptide screening, Table 5; for D. suzukii (Mean% Lethality ± SD): blank control 20.33; for D. suzukii (Sig Diff Grp): difference in survival. As for the experimental part:
(§1) First to Fourth generations of peptides were produced with varying structures and tested for CAPA receptor agonist activity, and screened for lethality in vivo against D. suzukii and M. persicae as per methods in example 2 and example 8. The top performing peptides were selected and gave rise to the list of CAPA1 and CAPA2 peptides provided above in Table 1 which were then further tested in the following applied examples.
Peptides were tested at concentrations ranging from [10^−4 M] to [10^−7 M] in a final volume of 200 μl of 0.8% agarose containing 0.09% m-Cresol purple pH marker dye (Sigma) and 5% sucrose (Sigma).
Agarose was melted in dH2O, before addition of sucrose and dye. The agarose/dye solution was then allowed to cool to 60° C. 96 well plates (flat-bottomed 3596 TC-plates; Corning) containing 20 μl volumes of neuropeptide per well were prepared, and 180 μl agarose/dye solution dispensed into each well via a Distriman repetitive micro-pipettor (Gilson). Controls contained 20 μl dH2O as a ‘sham’ treatment with 180 μl of the 0.8% agarose/dye solution. Plates were agitated at 800 rpm, to ensure mixing, at 60° C. (Eppendorf Thermomixer C). Plates were then allowed to cool, and agarose/dye solution solidify, prior to use.
Each peptide was assayed with a minimum of 7 to maximum 9 late L2/early L3 Spotted wing Drosophila, Drosophila suzukii, (feeding) larvae per well, minimum n=8 wells per peptide concentration and a minimum n=12 control wells per plate. The selected larvae were first washed 2× in ice cold Drosophila Schneider's liquid medium (ThermoFisher) before insertion into wells to remove extraneous food. After complete insertion of all larvae the plates were covered with breathable sealing membrane for multi-well plates (Sigma).
Larvae were assayed for lethality after 48 hr exposure at 21° C. and findings recorded. During examination the assay plate was kept on ice, to reduce larval locomotor activity (wandering), and larvae in each well were examined using a binocular stereomicroscope (Zeiss).
The water control group was used to determine baseline lethality. Results for neuropeptide analogues were calculated as % lethality in the remaining population after adjustment for the baseline. Results are shown in Tables 7 and 8 below, and in FIG. 1.

Series [2] relates to bumblebees (Bombus terrestris). Description: Bumblebee acute oral toxicity test. Format: in vivo. The procedure: Oral toxicity against bumblebees (Bombus terrestris) was determined as previously described:
OECD (2017), Test No. 247: Bumblebee, Acute Oral Toxicity Test, OECD Guidelines for the Testing of Chemicals, Section 2, OECD Publishing, Paris, https://doi.org/10.1787/9789264284128-en.
Example data are provided for peptides, AH56, AH257, AH259 in Tables 4, 5 below. […]
Data were acquired for: feeding behaviour—weight of liquid consumed pre- and post-treatment; lethality (days).
There was no negative impact on feeding behaviour from capa peptides. Acute bumblebee toxicity was also assessed for other peptide candidates including: AH270, PEG270. Overall, capa peptides are bee safe.

Series [3] deals with M. persicae. Put plainly: Feeding of aphids with peptides in artificial diet (Example 1). Format: in vivo, Myzus persicae. The conditions noted are these: 10^−5 M. As for the experimental part: A standard artificial diet for M. persicae was produced as described in Van Emden (2009) and provided the basal diet to which peptides were added for screening purposes. Peptides were diluted individually in the artificial diet to a pre-determined concentration.
Feeding apparatus were constructed using a set-up developed by Sadeghi et al (2009). For this, a piece of Parafilm was stretched over a Plexiglas ring (h=4 cm, Ø=3 cm) and 100 μl of the artificial diet containing the desired neuropeptide analogue was pipette onto the Parafilm membrane. A second piece of Parafilm, stretched to 4 times the original thickness, was stretched over the original layer, sandwiching the artificial diet between two layers of Parafilm. A strip of Parafilm was wrapped around the circumference of the Plexiglas ring, sealing in the diet. A plastic ring (h=1.2 cm, Ø=3.4 cm) was subsequently placed over the Parafilm layer, creating a walled chamber in which to house test aphids in contact with the Parafilm layer containing the artificial diet. Finally, a small Petri dish (h=1 cm, Ø=3.6 cm), modified for ventilation with net cloth, was placed on top of each feeding apparatus to prevent aphid escape.
To obtain aphids for use in experiments, reproducing anholocyclic adults were placed on individual excised leaves of Chinese cabbage at densities of 5 adults per leaf and allowed to reproduce for 24 h. The stem of each excised leaf was held within a 0.5 mL Eppendorf tube containing water via a punctured hole in the Eppendorf lid, and placed individually within a microcage (L=4 cm, Ø=9.5 cm). Following 24h, adults were removed and resultant first instar nymphs (<1 day old and synchronised in age to within 24h) retained. Nymphs were allowed to develop on the Chinese cabbage for 5 days. On day 5, (3rd instar) nymphs were transferred onto the artificial diet containing a neuropeptide analogue at densities of 1 per feeding chamber and monitored daily until death. Aphids were transferred to fresh artificial diet (containing neuropeptide analogue or water control) every 5 days.
The water control group was used to determine baseline lethality. Results for neuropeptide analogues were calculated as % lethality in the remaining population after adjustment for the baseline.

Another series has as its system Myzus persicae aphids. Put plainly: Topical application by spraying, Potter Spray Tower (Example 3). Format: in vivo. The conditions noted are these: 10^−5 M; 48 hours post spray. The procedure:
Aphids were exposed to test peptides in the absence of additional external stress conditions.
Brassica rapa (Chinese cabbage; Wong Bok) were infested with 30 adult Myzus persicae aphids per plant. Aphids were left at least 2 hours to settle and begin feeding from the host plant.
Potter Spray Tower (Burkard Manufacturing) was ‘primed’ by spraying 1000 μl of liquid coating the inside of the tower. Vehicle spray only (Croda ATPlus UEP 100 LQ-(CQ) 0.1% v/v) was used as a control.
Spray volumes for all solutions were 3000 μl. […] After spraying was completed the plant was allowed to rest on the spray platform for 30 seconds to allow settling of the sprayed chemical.
Post peptide application, each condition was placed into its own individual Bugdorm (Watkins and Doncaster, 44545), to prevent repulsed or displaced aphids moving from one condition to another. Numbers of alive and dead aphids on the plant were counted 48 hours post spray, and the presence of any fresh nymphs noted. Plants were watered prior to spraying but not afterwards to eliminate the possibility of drowning any aphids present or washing off the sprayed liquid.
The vehicle control group was used to determine baseline lethality. Results for neuropeptide analogues were calculated as % lethality in the remaining population after adjustment for the baseline.

Series [4] concerns M. persicae. Description: Feeding of aphids with peptides in artificial diet (Example 2; peptide screening, honeydew). Format: in vivo, Myzus persicae. The conditions noted are these: Peptide screening, Table 5.
Excerpt: as §1
The aphid feeding protocol was devised according to Sadeghi et al (2009) as explained in example 1. Feeding discs were designed and manufactured as above. A standard sucrose-based artificial diet for M. persicae (30 aphids per chamber, 3 chambers per experiment unless otherwise stated) was produced as described in example 1 (Sadeghi et al, J. Insect Science, 2009) and provided the basal diet to which peptides were added for screening purposes. Peptides were diluted individually in the artificial diet to 10^−5 M. Lethality was scored after up to 120 hours (IRAC guidelines for aphid testing).
Membrane discs were also included to collect ‘honeydew’ secreted by feeding aphids and stained with ninhydrin to observe feeding patterns.
Comparison of purple stain in controls to treated aphids, show there is very little colour on many membranes where peptides were added.
Capa peptides cause mortality in M. persicae via feeding: At 120 hours, AH383 and AH387 peptides induce ˜60% mean (and median) lethality. Although mean lethality is lower with AH270/PEGAH270 (40%), 100% lethality is observed in one sample of 30 insects (AH270); and 90% in at least one sample of each of AH383, AH387 and PEGAH270 (FIG. 3). Note that PEGAH270 is a pegylated form of peptide AH270.

Where [5] appears, read: Table 11, individual bees, peptide 1 × 10 − 5M or Spirotetramat 25 uM.

Several values for one entry are separate records, joined by “and”; a condition that tells them apart may be missing. Equal values may be shown once. Square brackets hold non-standard residues; d marks the D form. * marks the point of attachment. Guanidyl = -C(=N+Me2)NMe2 on the N-terminal amine (tetramethylguanidyl cap), CN(C)C(=[N+](C)C)*; Benzoyl(4-benzoyl) = O=C(c1ccccc1)c1ccc(C(=O)*)cc1; Palmitoyl = CCCCCCCCCCCCCCCC(=O)*; NMeV = CN[C@H](C(=O)O)C(C)C; NMeA = CN[C@@H](C)C(=O)O

“4-Benzoyl benzoic-LVAFPRV-NH2 ({Benzoyl(4-benzoyl)}-LVAFPRV-NH2; SMILES CC(C)C[C@H](NC(=O)c1ccc(C(=O)c2ccccc2)cc1)C(=O)N[C@H](C(=O)N[C@@H](C)C(=O)N[C@@H](Cc1ccccc1)C(=O)N1CCC[C@H]1C(=O)N[C@@H](CCCNC(=N)N)C(=O)N[C@H](C(N)=O)C(C)C)C(C)C) [AH55]”: the “D. suzukii (Mean% Lethality ± SD)” value in series [1] amounted to 54.50%.

With “4-Benzoyl benzoic-LYAFPRV-NH2 ({Benzoyl(4-benzoyl)}-LYAFPRV-NH2; SMILES CC(C)C[C@H](NC(=O)c1ccc(C(=O)c2ccccc2)cc1)C(=O)N[C@@H](Cc1ccc(O)cc1)C(=O)N[C@@H](C)C(=O)N[C@@H](Cc1ccccc1)C(=O)N1CCC[C@H]1C(=O)N[C@@H](CCCNC(=N)N)C(=O)N[C@H](C(N)=O)C(C)C) [AH49]”, in series [1], the “D. suzukii (Mean% Lethality ± SD)” value is 41.13% and the “D. suzukii (Sig Diff Grp)” value is “A”.

As to `CCOC(=O)OC1=C(c2cc(C)ccc2C)C(=O)N[C@]12CC[C@@H](OC)CC2` [Spirotetramat, reference compound], in series [2] (Table 11, group mean, n=10), the “Liquid post exposure (weight), Mean” value was 1.109 g and the “liquid consumed per day post exposure, Mean” value is given as 0.2773 g. Further, in series [2] (setting [5]), the “Liquid post exposure (weight)” value is 0.7878 g and 1.2332 g and 0.2963 g and 1.7853 g and 1.2062 g and 2.1130 g and 0.6196 g and 0.7732 g and 1.3842 g and 0.8924 g; the days alive is listed as 4 days; the “liquid consumed per day post exposure” value was 0.1970 g and 0.3083 g and 0.0741 g and 0.4463 g and 0.3016 g and 0.5283 g and 0.1549 g and 0.1933 g and 0.3461 g and 0.2231 g.

Regarding `O=[N+]([O-])NC1=NCCN1Cc1ccc(Cl)nc1` [imidacloprid, Imidacloprid, reference compound], in series [2] (28.3 uM, on day 1), the lethality of bumblebees is reported as 100%. Also, the “dead?” value in series [2] (Table 10, individual bees, peptide ×10−5M or imidacloprid 28.3 uM in 50% sucrose, 0.1% ATPlus) is listed as 1. For the same compound, the “Est weight sucrose consumed post testing/day” value in series [2] (individual bees, peptide ×10−5M or imidacloprid 28.3 uM in 50% sucrose, 0.1% ATPlus) is 0.0822 grams/day and 0.0000 grams/day and 0.0495 grams/day and 0.0562 grams/day and 0.2205 grams/day and 0.4394 grams/day. Further, the “Feeding impacted? (+ve feeding increased post pep, −ve feeding decreased post pep)” value in series [2] (individual bees, post minus pre testing sucrose consumption) was −0.1179 grams/day and −0.1209 grams/day and −0.1306 grams/day and −0.3025 grams/day and −0.1495 grams/day and −0.1412 grams/day and 0.0704 grams/day and −0.3396 grams/day and 0.1955 grams/day and −0.2914 grams/day and −0.3507 grams/day. In series [2] (per treatment group), the “T-test outcome, sucrose consumed Pre vs Post” value is “Feeding sig reduced”.

In the case of Ac-LVAFPRV-NH2 [AH33], in series [1], the “D. suzukii (Mean% Lethality ± SD)” value turned out to be 43.50% and the “D. suzukii (Sig Diff Grp)” value is “A”.

As for Ac-LYAFPRV-NH2 [AH32], in series [1], the “D. suzukii (Mean% Lethality ± SD)” value was determined as 41.50% and the “D. suzukii (Sig Diff Grp)” value is given as “A”.

Regarding “Guanidyl-LV-(Me)A-FPRV-NH2 (Guanidyl-LV[NMeA]FPRV-NH2; SMILES CC(C)C[C@H](NC(N(C)C)=[N+](C)C)C(=O)N[C@H](C(=O)N(C)[C@@H](C)C(=O)N[C@@H](Cc1ccccc1)C(=O)N1CCC[C@H]1C(=O)N[C@@H](CCCNC(=N)N)C(=O)N[C@H](C(N)=O)C(C)C)C(C)C) [AH258]”, in series [1], the “D. suzukii (Mean% Lethality ± SD)” value was determined as 47.75% and the “D. suzukii (Sig Diff Grp)” value is “A”.

Consider “H-LYAFAR-(Me)V-NH2 (H-LYAFAR[NMeV]-NH2; SMILES CC(C)C[C@H](N)C(=O)N[C@@H](Cc1ccc(O)cc1)C(=O)N[C@@H](C)C(=O)N[C@@H](Cc1ccccc1)C(=O)N[C@@H](C)C(=O)N[C@@H](CCCNC(=N)N)C(=O)N(C)[C@H](C(N)=O)C(C)C) [AH380]”, for which the “Feeding D. suzukii, % lethality in population after adjustment for baseline” value in series [1] (10^−5 M, 48 hr exposure) was found to be 45%. For the same compound, the “Feeding Aphid, % lethality in population after adjustment for baseline” value in the series on M. persicae [3] was determined as 12%. Besides, in the series on Myzus persicae aphids, the “Spray Aphid, % lethality in population after adjustment for baseline” value is 33%.

As to H-Nle-LYAFPRV-NH2 [AH51], in series [1], the “D. suzukii (Mean% Lethality ± SD)” value was 38.63% and the “D. suzukii (Sig Diff Grp)” value was “A”.

Regarding “Palmitoyl-LVAFPRV-NH2 (SMILES CCCCCCCCCCCCCCCC(=O)N[C@@H](CC(C)C)C(=O)N[C@H](C(=O)N[C@@H](C)C(=O)N[C@@H](Cc1ccccc1)C(=O)N1CCC[C@H]1C(=O)N[C@@H](CCCNC(=N)N)C(=O)N[C@H](C(N)=O)C(C)C)C(C)C) [AH59]”, in series [1], the “D. suzukii (Mean% Lethality ± SD)” value was determined as 44.13% and the “D. suzukii (Sig Diff Grp)” value is “A”.

On to “Palmitoyl-LYAFPRV-NH2 (SMILES CCCCCCCCCCCCCCCC(=O)N[C@@H](CC(C)C)C(=O)N[C@@H](Cc1ccc(O)cc1)C(=O)N[C@@H](C)C(=O)N[C@@H](Cc1ccccc1)C(=O)N1CCC[C@H]1C(=O)N[C@@H](CCCNC(=N)N)C(=O)N[C@H](C(N)=O)C(C)C) [AH62]”, for which the “M. persicae (% Lethality)” value in the series on M. persicae [4] amounted to 29%.

These data come from patent publication US20240373849A1, “INSECT NEUROPEPTIDE ANALOGUES” (THE UNIVERSITY COURT OF THE UNIVERSITY OF GLASGOW, priority 2020, published 2024).
